According to patent US12006328B2, “Thieno[2,3-d]pyrimidin-4-one derivatives as NMDAR modulators and uses related thereto” (Emory University, priority 2014, dated 2024):

Assays:
Assay type in all cases: cell-based
[1] = molecular target: GluN2B-containing NMDA receptors (Homo sapiens, UniProt Q13224); assay: Two-electrode voltage-clamp recordings from Xenopus laevis oocytes, GluN2B; conditions: for I10 μM/ICONTROL (mean ± SEM, %) Glu N2B: 10 μM test compound with glutamate 100 μM and glycine 30 μM, Tables 1-5; for I10 μM/ICONTROL (mean ± SEM, %) Glu N2B / maximal potentiation Glu N2B: percent of response without compound; for EC50 / IC50: glutamate 100 μM, glycine 30 μM, Hill fit; for EC50: read-out: EC50 Glu N2B; for IC50: read-out: IC50 Glu N2B
Method: (§1) Xenopus laevis oocytes were injected with cRNA encoding the NMDA receptor subunits. Two to seven days after injection, two-electrode voltage-clamp recordings were performed. Extracellular solutions were made from a solutions containing (in mM) 90 NaCl, 3 KCl, 10 HEPES, 0.5 BaCl2, 0.01 EDTA (pH 7.4 with NaOH). Voltage and current electrodes were filled with 0.3 M and 3.0 M KCl, respectively.
(§2) Potency was determined by adding increasing concentrations of test compound to saturating concentrations of glutamate (100 μM) and glycine (30 μM), and the response amplitude measured. The response in the presence of each concentration of test compound plus agonists was expressed as a percent of the response in the absence of test compound.

[2] = molecular target: GluN2C-containing NMDA receptors (Homo sapiens, UniProt Q14957); assay: Two-electrode voltage-clamp recordings from Xenopus laevis oocytes, GluN2C; conditions: for I10 μM/ICONTROL (mean ± SEM, %) Glu N2C: 10 μM test compound with glutamate 100 μM and glycine 30 μM, Tables 1-5; for I10 μM/ICONTROL (mean ± SEM, %) Glu N2C / maximal potentiation Glu N2C: percent of response without compound; for EC50 / IC50: glutamate 100 μM, glycine 30 μM, Hill fit; for EC50: read-out: EC50 Glu N2C; for IC50: read-out: IC50 Glu N2C
Method: as §1, §2

[3] = molecular target: GluN2D-containing NMDA receptors (Homo sapiens, UniProt O15399); assay: Two-electrode voltage-clamp recordings from Xenopus laevis oocytes, GluN2D; conditions: for I10 μM/ICONTROL (mean ± SEM, %) Glu N2D: 10 μM test compound with glutamate 100 μM and glycine 30 μM, Tables 1-5; for I10 μM/ICONTROL (mean ± SEM, %) Glu N2D / maximal potentiation Glu N2D: percent of response without compound; for EC50 / IC50: glutamate 100 μM, glycine 30 μM, Hill fit; for EC50: read-out: EC50 Glu N2D; for IC50: read-out: IC50 Glu N2D
Method: as §1, §2

[4] = Table 1, in brackets after EC50
[5] = Table 2, in brackets below IC50

Sequence of GluN2C-containing NMDA receptors (Q14957 20-1233, other chains not shown): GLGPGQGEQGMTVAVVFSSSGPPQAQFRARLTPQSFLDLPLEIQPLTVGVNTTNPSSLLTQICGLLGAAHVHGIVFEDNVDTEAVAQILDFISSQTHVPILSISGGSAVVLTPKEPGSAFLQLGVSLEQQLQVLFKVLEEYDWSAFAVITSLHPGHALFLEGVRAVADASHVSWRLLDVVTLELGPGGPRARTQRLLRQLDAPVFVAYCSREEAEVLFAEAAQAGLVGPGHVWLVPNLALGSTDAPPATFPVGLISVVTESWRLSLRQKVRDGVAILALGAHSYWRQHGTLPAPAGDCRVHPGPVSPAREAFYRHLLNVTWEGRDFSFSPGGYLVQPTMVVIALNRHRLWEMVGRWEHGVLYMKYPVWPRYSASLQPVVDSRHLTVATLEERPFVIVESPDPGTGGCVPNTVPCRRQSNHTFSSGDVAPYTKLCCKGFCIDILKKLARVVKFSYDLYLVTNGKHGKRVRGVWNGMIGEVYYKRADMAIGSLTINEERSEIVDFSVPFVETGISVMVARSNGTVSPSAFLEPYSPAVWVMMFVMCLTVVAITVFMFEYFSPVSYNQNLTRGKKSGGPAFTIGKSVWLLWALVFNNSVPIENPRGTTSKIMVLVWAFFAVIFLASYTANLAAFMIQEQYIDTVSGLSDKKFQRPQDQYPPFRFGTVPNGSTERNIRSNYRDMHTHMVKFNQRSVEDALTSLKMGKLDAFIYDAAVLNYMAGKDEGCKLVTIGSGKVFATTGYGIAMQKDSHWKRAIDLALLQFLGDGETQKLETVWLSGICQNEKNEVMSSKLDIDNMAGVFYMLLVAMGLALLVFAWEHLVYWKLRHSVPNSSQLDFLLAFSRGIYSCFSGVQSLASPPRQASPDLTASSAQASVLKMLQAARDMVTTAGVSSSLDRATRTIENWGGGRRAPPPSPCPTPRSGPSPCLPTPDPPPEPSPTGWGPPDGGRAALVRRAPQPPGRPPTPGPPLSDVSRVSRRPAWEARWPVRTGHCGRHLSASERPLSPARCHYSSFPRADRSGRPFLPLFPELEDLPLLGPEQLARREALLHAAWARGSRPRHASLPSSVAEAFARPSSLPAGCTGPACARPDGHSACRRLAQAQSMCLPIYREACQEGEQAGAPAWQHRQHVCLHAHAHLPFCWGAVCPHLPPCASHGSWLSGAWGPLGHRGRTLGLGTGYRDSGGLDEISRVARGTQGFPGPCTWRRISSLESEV
Sequence of GluN2B-containing NMDA receptors (Q13224 27-1484, other chains not shown): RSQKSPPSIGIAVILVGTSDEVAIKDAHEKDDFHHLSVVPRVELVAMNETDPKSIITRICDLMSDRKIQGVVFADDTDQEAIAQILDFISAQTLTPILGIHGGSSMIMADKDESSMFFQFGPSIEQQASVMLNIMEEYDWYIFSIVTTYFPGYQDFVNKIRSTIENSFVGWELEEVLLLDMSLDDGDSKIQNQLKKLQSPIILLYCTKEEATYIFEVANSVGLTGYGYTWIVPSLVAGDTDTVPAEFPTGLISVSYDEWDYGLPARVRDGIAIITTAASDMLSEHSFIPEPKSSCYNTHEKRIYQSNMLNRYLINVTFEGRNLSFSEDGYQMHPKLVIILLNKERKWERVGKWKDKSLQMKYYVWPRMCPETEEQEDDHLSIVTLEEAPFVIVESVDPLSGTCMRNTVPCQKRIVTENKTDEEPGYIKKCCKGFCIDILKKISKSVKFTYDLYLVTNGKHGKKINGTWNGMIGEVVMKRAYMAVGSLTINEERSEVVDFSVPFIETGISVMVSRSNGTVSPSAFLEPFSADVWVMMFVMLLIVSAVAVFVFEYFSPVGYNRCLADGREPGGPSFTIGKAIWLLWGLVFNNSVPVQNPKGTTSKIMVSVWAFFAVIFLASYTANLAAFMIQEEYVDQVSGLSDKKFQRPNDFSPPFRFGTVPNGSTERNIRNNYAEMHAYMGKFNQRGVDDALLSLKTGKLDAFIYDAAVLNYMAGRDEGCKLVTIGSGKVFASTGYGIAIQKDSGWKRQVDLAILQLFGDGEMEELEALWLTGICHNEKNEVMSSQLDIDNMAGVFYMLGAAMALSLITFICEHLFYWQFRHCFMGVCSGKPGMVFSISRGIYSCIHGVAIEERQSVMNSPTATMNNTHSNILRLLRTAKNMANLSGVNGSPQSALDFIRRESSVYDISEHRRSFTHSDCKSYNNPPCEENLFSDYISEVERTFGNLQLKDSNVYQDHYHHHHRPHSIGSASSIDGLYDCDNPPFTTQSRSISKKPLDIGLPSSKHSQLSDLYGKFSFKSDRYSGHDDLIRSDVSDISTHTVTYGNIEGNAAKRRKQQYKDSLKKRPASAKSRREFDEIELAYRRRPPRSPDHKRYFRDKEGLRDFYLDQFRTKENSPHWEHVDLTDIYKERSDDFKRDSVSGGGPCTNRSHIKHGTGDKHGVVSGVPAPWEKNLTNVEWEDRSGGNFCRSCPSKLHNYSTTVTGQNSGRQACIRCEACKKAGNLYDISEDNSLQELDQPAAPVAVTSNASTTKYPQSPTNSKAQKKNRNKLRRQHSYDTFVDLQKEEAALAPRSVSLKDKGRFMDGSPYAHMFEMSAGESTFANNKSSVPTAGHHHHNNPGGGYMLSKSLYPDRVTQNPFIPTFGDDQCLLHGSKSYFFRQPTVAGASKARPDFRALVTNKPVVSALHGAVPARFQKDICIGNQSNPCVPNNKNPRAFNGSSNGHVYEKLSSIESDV
Sequence of GluN2D-containing NMDA receptors (O15399 28-1336, other chains not shown): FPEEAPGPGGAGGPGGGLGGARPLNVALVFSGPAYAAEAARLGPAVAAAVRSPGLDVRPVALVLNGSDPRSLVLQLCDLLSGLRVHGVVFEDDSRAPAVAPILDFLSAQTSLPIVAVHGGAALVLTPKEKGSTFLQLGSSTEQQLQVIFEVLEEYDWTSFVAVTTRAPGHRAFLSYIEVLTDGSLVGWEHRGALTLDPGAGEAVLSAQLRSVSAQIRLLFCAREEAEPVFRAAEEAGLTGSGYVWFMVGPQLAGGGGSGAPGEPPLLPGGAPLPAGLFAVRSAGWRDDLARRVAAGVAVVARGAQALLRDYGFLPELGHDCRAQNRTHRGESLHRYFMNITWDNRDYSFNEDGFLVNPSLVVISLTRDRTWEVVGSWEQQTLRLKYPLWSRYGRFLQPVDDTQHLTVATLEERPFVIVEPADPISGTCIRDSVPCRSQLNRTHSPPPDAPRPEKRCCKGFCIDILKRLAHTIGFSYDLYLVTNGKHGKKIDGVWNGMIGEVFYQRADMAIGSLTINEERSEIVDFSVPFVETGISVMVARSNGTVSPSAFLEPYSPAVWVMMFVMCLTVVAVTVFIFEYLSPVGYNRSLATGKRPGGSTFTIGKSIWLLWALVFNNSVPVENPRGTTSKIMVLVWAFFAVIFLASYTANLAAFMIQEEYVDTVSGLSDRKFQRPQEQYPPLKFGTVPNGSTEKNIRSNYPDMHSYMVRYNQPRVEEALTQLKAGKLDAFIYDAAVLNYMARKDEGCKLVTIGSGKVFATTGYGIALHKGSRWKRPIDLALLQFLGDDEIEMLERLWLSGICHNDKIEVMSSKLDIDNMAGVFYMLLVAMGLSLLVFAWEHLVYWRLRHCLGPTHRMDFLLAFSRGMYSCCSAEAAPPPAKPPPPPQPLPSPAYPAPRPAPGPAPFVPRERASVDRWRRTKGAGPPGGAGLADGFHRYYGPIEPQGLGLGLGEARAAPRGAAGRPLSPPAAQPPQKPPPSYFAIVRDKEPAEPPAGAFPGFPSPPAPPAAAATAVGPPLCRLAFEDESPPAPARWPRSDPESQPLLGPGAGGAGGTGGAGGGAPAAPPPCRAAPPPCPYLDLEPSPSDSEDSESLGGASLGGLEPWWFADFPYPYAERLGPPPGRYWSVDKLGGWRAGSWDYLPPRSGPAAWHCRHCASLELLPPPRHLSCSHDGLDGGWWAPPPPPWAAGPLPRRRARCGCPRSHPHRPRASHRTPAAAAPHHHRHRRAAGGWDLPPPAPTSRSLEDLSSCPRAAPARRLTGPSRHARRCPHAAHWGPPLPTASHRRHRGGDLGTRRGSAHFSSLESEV

| Structure (SMILES) | I10 μM/ICONTROL (mean ± SEM, %) Glu N2B [1] [%] | EC50 ([1]; Table 1) [µM] | maximal potentiation Glu N2B [1, 4] [%] | I10 μM/ICONTROL (mean ± SEM, %) Glu N2C [2] [%] | EC50 ([2]; Table 1) [µM] | maximal potentiation Glu N2C [2, 4] [%] | I10 μM/ICONTROL (mean ± SEM, %) Glu N2D [3] [%] | EC50 ([3]; Table 1) [µM] | maximal potentiation Glu N2D [3, 4] [%] | IC50 ([1]; Table 2) [µM] | maximal potentiation Glu N2B [1, 5] | IC50 ([2]; Table 2) [µM] | maximal potentiation Glu N2C [2, 5] | IC50 ([3]; Table 2) [µM] | maximal potentiation Glu N2D [3, 5] |
| --- | --- | --- | --- | --- | --- | --- | --- | --- | --- | --- | --- | --- | --- | --- | --- |
| O=C(Cn1cnc2scc(-c3ccc(I)cc3)c2c1=O)N1CCCC1 [4-I—Ph / H] | 121 ± 5.7 | 75 | 262 | 110 ± 2.1 | 89 | 369 | 101 ± 1.8 | 45 | 206 |  |  |  |  |  |  |
| COc1cccc(C(=O)Cn2cnc3sc(C)c(-c4cccc(I)c4)c3c2=O)c1 [1 / 3-I—Ph / Me / 3-OMe—Ph] | 107 ± 3.0 |  |  | 107 ± 4.9 |  |  | 99 ± 4.3 |  |  |  |  |  |  |  |  |
| Cc1sc2ncn(Cc3cn(CCC4OCCCO4)nn3)c(=O)c2c1-c1cccc(Cl)c1 | 89 ± 2.5 |  |  | 88 ± 0.5 |  |  | 88 ± 3.4 |  |  |  |  |  |  |  |  |
| CCc1ccc(-c2csc3ncn(CC(=O)N4CCCC4)c(=O)c23)cc1 [4-Et—Ph / H] |  | 39 | 223 |  | 66 | 417 |  | 58 | 355 |  |  |  |  |  |  |
| Cc1sc2ncn(CC(=O)N3CCCC3)c(=O)c2c1-c1cc(C(F)(F)F)cc(C(F)(F)F)c1 [3,5-CF3—Ph / Me] | 101 ± 4.5 |  |  | 115 ± 5.5 |  |  | 103 ± 1.1 |  |  |  |  |  |  |  |  |
| COc1ccc(C(=O)Cn2cnc3sc4c(c3c2=O)CCCC4)c(OC)c1 [2,4-OMe] | 95 ± 1.8 |  |  | 94 ± 1.4 |  |  | 90 ± 0.7 |  |  |  |  |  |  |  |  |
| CC(C)c1ccc(-c2csc3ncn(CC(=O)N4CCCC4)c(=O)c23)cc1 [4-^iPr—Ph / H] | 121 ± 6.9 | 33 | 174 | 100 ± 2.5 |  |  | 98 ± 1.4 |  |  |  |  |  |  |  |  |
| Cc1sc2ncn(CC(=O)c3cccs3)c(=O)c2c1-c1cccc(I)c1 [1 / 3-I—Ph / Me / 2-thiophene] | 129 ± 4.5 |  |  | 180 ± 10.7 |  |  | 177 ± 7.0 |  |  | 7.7 | (147) % | 9.3 | (255) % | 11 | (262) % |
| CSc1ccc(-c2csc3ncn(CC(=O)N4CCCC4)c(=O)c23)cc1 [4-MeS—Ph / H] | 102 ± 4.6 |  |  | 99 ± 2.5 |  |  | 96 ± 2.6 |  |  |  |  |  |  |  |  |

Further lines, with some results ahead:

| I10 μM/ICONTROL (mean ± SEM, %) Glu N2B [1] [%] | EC50 ([1]; Table 1) [µM] | maximal potentiation Glu N2B [1, 4] [%] | I10 μM/ICONTROL (mean ± SEM, %) Glu N2C [2] [%] | EC50 ([2]; Table 1) [µM] | maximal potentiation Glu N2C [2, 4] [%] | I10 μM/ICONTROL (mean ± SEM, %) Glu N2D [3] [%] | EC50 ([3]; Table 1) [µM] | maximal potentiation Glu N2D [3, 4] [%] | Structure (SMILES) | IC50 ([1]; Table 2) [µM] | maximal potentiation Glu N2B [1, 5] | IC50 ([2]; Table 2) [µM] | maximal potentiation Glu N2C [2, 5] | IC50 ([3]; Table 2) [µM] | maximal potentiation Glu N2D [3, 5] |
| --- | --- | --- | --- | --- | --- | --- | --- | --- | --- | --- | --- | --- | --- | --- | --- |
| 185 ± 4.8 | 12 | 304 | 321 ± 13.6 | 36 | 1483 | 253 ± 13.3 | 60 | 1860 | Cc1sc2ncn(CC(=O)N3CCCC3)c(=O)c2c1-c1cccc([N+](=O)[O-])c1 [3-NO2—Ph / Me] |  |  |  |  |  |  |
| 92 ± 1.7 |  |  | 109 ± 3.1 |  |  | 105 ± 1.8 |  |  | Cc1sc2ncn(CC(=O)N(C)C)c(=O)c2c1-c1ccc(Br)cc1 [1 / 4-Br—Ph / Me / —N(Me)2] |  |  |  |  |  |  |
| 89 ± 1.7 |  |  | 104 ± 2.3 |  |  | 97 ± 1.9 |  |  | Cc1sc2ncn(CC(=O)N3CCC[C@H]3C(=O)O)c(=O)c2c1-c1ccc(Cl)cc1 [1 / 4-Cl—Ph / Me / —Nproline (S)] |  |  |  |  |  |  |
| 127 ± 4.6 |  |  | 141 ± 7.0 |  |  | 136 ± 3.0 |  |  | CCOC(=O)Cn1cnc2sc(C)c(-c3cccc(Cl)c3)c2c1=O [1 / 3-Cl—Ph / Me / OEt] | 17 | (148) % | 26 | (390) % | 16 | (245) % |
| 96 ± 2.6 |  |  | 110 ± 5.9 |  |  | 89 ± 1.6 |  |  | Cc1sc2ncn(CC(=O)Oc3ccccc3)c(=O)c2c1-c1cccc(Cl)c1 [1 / 3-Cl—Ph / Me / OPh] |  |  |  |  |  |  |
| 152 ± 8.8 | 20 | 259 | 167 ± 9.6 | 35 | 493 | 151 ± 6.3 | 32 | 432 | Cc1sc2ncn(CC(=O)N3CCCC3)c(=O)c2c1-c1cc(I)cc(I)c1 [3,5-I—Ph / Me] |  |  |  |  |  |  |
| 109 ± 4.9 |  |  | 159 ± 9.5 |  |  | 147 ± 12.7 |  |  | COC(=O)[C@@H]1CCCN1C(=O)Cn1cnc2sc(C)c(-c3ccc(Br)cc3)c2c1=O |  |  |  |  |  |  |
| 82 ± 1.0 |  |  | 98 ± 2.3 |  |  | 99 ± 2.5 |  |  | Cc1sc2ncn(CC(=O)N3CCCC3)c(=O)c2c1-c1ccc(O)cc1 [4-OH—Ph / Me] |  |  |  |  |  |  |
| 170 ± 4.7 | 16 | 301 | 211 ± 14.7 | 36 | 877 | 190 ± 6.3 | 37 | 830 | Cc1sc2ncn(CC(=O)N3CCCC3)c(=O)c2c1-c1cccc(Cl)c1 [3-Cl—Ph / Me] |  |  |  |  |  |  |
| 211 ± 11.3 | 6 | 282 | 368 ± 29.0 | 13 | 748 | 480 ± 74.3 | 25 | 1735 | Cc1sc2ncn(CC(=O)N3CCCC3)c(=O)c2c1-c1cccc(C(F)(F)F)c1 [3-CF3—Ph / Me] |  |  |  |  |  |  |
